For assay [1], the target named is EGFR wild type (EGFR WT) (Homo sapiens (Human), UniProt P00533). Briefly: Cellular Phosphorylation Assay, Assay 5 (EGF-stimulated EGFR phosphorylation, NIH 3T3 cells). The assay is classed as cell-based. The settings on record: EGF-stimulated EGFR WT phosphorylation.
Assay [2] deals with ErbB2 WT (Homo sapiens (Human), UniProt P04626). Briefly: ErbB Enzyme Assay (HTRF KinEASE-TK), Assay 2. The settings on record: ErbB2 WT enzyme. The assay is classed as biochemical. A general note: Time-resolved FRET reads energy transfer from a long-lived donor to a nearby acceptor.
Chain of ErbB2 WT (P04626 23-1255): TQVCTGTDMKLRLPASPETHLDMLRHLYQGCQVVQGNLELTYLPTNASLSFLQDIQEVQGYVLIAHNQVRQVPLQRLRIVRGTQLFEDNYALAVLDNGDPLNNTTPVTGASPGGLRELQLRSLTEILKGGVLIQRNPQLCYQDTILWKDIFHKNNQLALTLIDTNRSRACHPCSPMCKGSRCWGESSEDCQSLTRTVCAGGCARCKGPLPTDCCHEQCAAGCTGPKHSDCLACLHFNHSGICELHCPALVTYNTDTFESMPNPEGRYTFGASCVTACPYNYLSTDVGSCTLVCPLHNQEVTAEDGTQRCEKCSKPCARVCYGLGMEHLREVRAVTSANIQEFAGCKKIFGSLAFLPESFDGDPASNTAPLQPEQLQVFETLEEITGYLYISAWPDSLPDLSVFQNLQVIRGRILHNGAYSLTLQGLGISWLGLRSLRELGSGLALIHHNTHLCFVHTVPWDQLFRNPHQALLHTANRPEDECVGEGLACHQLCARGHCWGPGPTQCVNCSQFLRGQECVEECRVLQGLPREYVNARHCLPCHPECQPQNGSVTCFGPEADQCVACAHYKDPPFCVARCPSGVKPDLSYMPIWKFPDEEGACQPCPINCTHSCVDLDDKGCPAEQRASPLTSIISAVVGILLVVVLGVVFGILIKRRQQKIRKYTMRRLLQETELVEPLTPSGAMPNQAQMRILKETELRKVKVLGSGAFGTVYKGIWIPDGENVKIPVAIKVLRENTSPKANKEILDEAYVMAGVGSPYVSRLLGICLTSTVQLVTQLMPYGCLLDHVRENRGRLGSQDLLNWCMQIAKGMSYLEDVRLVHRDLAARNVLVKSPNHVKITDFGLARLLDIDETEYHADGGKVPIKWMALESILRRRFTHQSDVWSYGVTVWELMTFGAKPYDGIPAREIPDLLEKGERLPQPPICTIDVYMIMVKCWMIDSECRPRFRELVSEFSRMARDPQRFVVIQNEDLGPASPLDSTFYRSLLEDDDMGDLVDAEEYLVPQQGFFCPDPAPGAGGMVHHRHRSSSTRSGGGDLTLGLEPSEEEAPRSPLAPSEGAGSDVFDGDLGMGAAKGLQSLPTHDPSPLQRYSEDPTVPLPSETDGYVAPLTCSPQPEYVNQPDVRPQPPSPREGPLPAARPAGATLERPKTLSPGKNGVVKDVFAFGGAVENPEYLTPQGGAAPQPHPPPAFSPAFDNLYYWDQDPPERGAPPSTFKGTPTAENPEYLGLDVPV
Assay [3] has as its target EGFR (Homo sapiens (Human), UniProt P00533). Put plainly: ErbB Enzyme Assay (HTRF KinEASE-TK), Assay 3. The class given is biochemical. Conditions: EGFR enzyme.
In assay [4] the target is ErbB2 with Exon 20 YVMA insertion (HER2-YVMA) (Homo sapiens (Human), UniProt P04626, INS775YVMA). Put plainly: Cellular Phosphorylation Assay, Assay 4 (constitutive ErbB2 phosphorylation, NIH 3T3 cells). The settings on record: ErbB2 YVMA phosphorylation. The assay is classed as cell-based.
Chain of ErbB2 with Exon 20 YVMA insertion (HER2-YVMA) (P04626 other isoform, or with tags, fused parts or gaps ins YVMA behind 775): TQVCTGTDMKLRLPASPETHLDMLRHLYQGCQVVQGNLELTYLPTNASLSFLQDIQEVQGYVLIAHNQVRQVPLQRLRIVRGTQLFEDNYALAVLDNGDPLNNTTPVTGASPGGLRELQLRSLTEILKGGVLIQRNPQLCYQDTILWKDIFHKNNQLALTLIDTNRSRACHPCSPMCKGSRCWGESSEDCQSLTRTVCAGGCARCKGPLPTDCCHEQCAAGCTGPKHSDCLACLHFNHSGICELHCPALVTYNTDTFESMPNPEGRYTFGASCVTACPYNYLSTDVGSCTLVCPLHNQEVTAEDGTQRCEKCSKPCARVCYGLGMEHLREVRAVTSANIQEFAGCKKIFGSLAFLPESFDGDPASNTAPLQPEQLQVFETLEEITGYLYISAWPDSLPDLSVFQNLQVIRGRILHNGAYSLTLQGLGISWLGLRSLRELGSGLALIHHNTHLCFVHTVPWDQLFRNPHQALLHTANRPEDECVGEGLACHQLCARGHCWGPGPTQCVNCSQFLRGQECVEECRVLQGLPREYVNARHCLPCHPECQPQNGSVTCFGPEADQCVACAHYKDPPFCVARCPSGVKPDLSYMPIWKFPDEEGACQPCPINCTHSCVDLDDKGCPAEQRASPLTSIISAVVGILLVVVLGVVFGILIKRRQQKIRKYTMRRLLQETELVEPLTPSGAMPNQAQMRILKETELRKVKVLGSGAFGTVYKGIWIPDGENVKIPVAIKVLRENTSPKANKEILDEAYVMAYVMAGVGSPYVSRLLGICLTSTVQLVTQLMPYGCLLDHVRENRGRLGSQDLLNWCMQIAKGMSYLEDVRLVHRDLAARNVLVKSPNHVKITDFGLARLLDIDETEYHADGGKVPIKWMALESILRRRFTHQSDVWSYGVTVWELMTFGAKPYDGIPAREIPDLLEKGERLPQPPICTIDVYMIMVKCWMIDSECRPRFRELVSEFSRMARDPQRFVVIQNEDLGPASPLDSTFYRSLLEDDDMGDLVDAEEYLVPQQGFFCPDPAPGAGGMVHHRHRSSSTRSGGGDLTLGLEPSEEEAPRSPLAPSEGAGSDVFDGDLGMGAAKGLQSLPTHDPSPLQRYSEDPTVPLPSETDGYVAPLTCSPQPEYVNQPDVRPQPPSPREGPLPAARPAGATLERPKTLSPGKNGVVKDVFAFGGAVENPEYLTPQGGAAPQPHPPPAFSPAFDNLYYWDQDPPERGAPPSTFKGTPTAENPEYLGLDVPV

Chain of EGFR wild type (EGFR WT) (P00533 25-1210): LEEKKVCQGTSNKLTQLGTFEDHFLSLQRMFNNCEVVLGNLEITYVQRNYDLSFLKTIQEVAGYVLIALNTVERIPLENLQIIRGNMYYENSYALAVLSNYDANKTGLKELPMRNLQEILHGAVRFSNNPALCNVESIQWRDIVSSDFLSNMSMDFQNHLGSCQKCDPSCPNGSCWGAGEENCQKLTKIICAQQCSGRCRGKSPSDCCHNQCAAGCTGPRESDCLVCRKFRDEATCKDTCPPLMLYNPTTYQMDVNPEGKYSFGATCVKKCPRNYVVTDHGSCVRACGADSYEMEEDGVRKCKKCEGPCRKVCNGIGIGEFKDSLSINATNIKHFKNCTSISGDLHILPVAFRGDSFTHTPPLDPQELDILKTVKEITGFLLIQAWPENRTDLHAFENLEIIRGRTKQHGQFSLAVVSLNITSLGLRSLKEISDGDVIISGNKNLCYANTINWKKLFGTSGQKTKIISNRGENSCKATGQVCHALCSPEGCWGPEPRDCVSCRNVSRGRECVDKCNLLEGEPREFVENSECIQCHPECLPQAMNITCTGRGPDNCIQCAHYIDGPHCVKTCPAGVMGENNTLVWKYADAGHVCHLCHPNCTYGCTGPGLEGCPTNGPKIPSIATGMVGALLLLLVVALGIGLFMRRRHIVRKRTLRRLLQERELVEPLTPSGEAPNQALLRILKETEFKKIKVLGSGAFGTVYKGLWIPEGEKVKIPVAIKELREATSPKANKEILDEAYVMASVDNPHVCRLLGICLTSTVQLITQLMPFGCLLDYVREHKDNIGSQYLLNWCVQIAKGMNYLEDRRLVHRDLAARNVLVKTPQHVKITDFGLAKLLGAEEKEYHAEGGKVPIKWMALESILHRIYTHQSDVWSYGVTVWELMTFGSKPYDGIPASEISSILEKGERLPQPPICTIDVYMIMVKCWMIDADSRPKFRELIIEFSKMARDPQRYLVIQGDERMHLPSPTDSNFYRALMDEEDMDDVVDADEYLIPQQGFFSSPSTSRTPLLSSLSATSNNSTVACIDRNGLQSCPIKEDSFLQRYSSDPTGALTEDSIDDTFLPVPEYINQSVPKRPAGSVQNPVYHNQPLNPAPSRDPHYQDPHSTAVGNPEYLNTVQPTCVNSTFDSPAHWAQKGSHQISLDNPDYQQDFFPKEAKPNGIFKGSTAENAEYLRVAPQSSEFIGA
Chain of EGFR (P00533 25-1210): as above

Consider `C=CC(=O)N1C[C@H]2C[C@@H]1CN2c1ccc2ncnc(Nc3ccc(Oc4ccn5ncnc5c4)c(Cl)c3F)c2n1` [Example 92, 1-((1R,4R)-5-(4-((4-([1,2,4]triazolo[1,5-a]pyridin-7-yloxy)-3-chloro-2-fluorophenyl)amino)pyrido[3,2-d]pyrimidin-6-yl)-2,5-diazabicyclo[2.2.1]heptan-2-yl)prop-2-en-1-one], for which the half-maximal inhibitory concentration (IC50) (in general, the concentration that inhibits the measured activity by half) in assay [1] was 1880 nM; in assay [2] it was 126 nM; in assay [3], 2430 nM; in assay [4] it was 15.4 nM.

In the case of `C=CC(=O)N1C[C@@H]2C[C@H]1CN2c1ccc2ncnc(Nc3ccc(Oc4ccn5ncnc5c4)c(Cl)c3F)c2n1` [Example 93, 1-((1S,4S)-5-(4-((4-([1,2,4]triazolo[1,5-a]pyridin-7-yloxy)-3-chloro-2-fluorophenyl)amino)pyrido[3,2-d]pyrimidin-6-yl)-2,5-diazabicyclo[2.2.1]heptan-2-yl)prop-2-en-1-one], the half-maximal inhibitory concentration (IC50) in assay [1] stood at 53.5 nM; in assay [2], 12.6 nM; in assay [3], 137 nM; in assay [4] it was 3.7 nM.

With `C=CC(=O)N1C[C@@H]2C[C@H]1CN2c1ccc2ncnc(Nc3ccc(Oc4ccn5ncnc5c4)c(C)c3F)c2n1` [Example 95, 1-((1S,4S)-5-(4-((4-([1,2,4]triazolo[1,5-a]pyridin-7-yloxy)-2-fluoro-3-methylphenyl)amino)pyrido[3,2-d]pyrimidin-6-yl)-2,5-diazabicyclo[2.2.1]heptan-2-yl)prop-2-en-1-one], the 50% inhibitory concentration (IC50) came out at 49.5 nM in assay [1], 38 nM in assay [2], 378 nM in assay [3] and 5 nM in assay [4].

As to `C=CC(=O)N1CCCN(c2ccc3ncnc(Nc4ccc(Oc5ccn6ncnc6c5)c(Cl)c4)c3n2)CC1` [Example 99, 1-(4-(4-((4-([1,2,4]triazolo[1,5-a]pyridin-7-yloxy)-3-chlorophenyl)amino)pyrido[3,2-d]pyrimidin-6-yl)-1,4-diazepan-1-yl)prop-2-en-1-one], the concentration for half-maximal inhibition (IC50) in assay [1] is not below 5000 nM; in assay [2] it was 19 nM; in assay [3], 5840 nM; in assay [4], 35.2 nM.

Consider `C=CC(=O)N1CCCN(c2ccc3ncnc(Nc4ccc(Oc5ccn6ncnc6c5)c(C)c4F)c3n2)CC1` [Example 100, 1-(4-(4-((4-([1,2,4]triazolo[1,5-a]pyridin-7-yloxy)-2-fluoro-3-methylphenyl)amino)pyrido[3,2-d]pyrimidin-6-yl)-1,4-diazepan-1-yl)prop-2-en-1-one], for which the concentration for half-maximal inhibition (IC50) in assay [1] was not below 5000 nM; in assay [2] it was 132 nM; in assay [3] it was 9570 nM; in assay [4] it was 66.1 nM.

Regarding `C=CC(=O)N1C[C@@H]2C[C@H]1CN(c1ccc3ncnc(Nc4cc(C)c(Oc5ccc6c(c5)ncn6C)cc4F)c3n1)C2` [Example 102, 1-((1R,5S)-3-(4-((2-fluoro-5-methyl-4-((1-methyl-1H-benzo[d]imidazol-5-yl)oxy)phenyl)amino)pyrido[3,2-d]pyrimidin-6-yl)-3,6-diazabicyclo[3.2.1]octan-6-yl)prop-2-en-1-one], the IC50 in assay [1] is not below 5000 nM; in assay [2], 461 nM; in assay [3] it was not below 10000 nM; in assay [4], 15.4 nM.

Consider `C=CC(=O)N1[C@H](C)CN(c2ccc3ncnc(Nc4ccc(Oc5ccc6c(c5)ncn6C)c(C)c4F)c3n2)C[C@@H]1C` [Example 115, 1-((2S,6R)-4-(4-((2-fluoro-3-methyl-4-((1-methyl-1H-benzo[d]imidazol-5-yl)oxy)phenyl)amino)pyrido[3,2-d]pyrimidin-6-yl)-2,6-dimethylpiperazin-1-yl)prop-2-en-1-one], for which the concentration for half-maximal inhibition (IC50) in assay [1] is not below 5000 nM; in assay [2], 55.4 nM; in assay [3] it was not below 10000 nM; in assay [4], 82.8 nM.

`C=CC(=O)N1C[C@H]2C[C@@H]1CN(c1ccc3ncnc(Nc4cc(C)c(Oc5ccc6c(c5)ncn6C)cc4F)c3n1)C2` [Example 119, 1-((1S,5R)-3-(4-((2-fluoro-5-methyl-4-((1-methyl-1H-benzo[d]imidazol-5-yl)oxy)phenyl)amino)pyrido[3,2-d]pyrimidin-6-yl)-3,6-diazabicyclo[3.2.1]octan-6-yl)prop-2-en-1-one]: the IC50 is not below 5000 nM in assay [1], 60.4 nM in assay [2], not below 10000 nM in assay [3] and 9.4 nM in assay [4].

For the compound `C=CC(=O)N1C2CCC1CC(c1ccc3ncnc(Nc4ccc(Oc5ccc6c(c5)ncn6C)c(C)c4)c3n1)C2` (stereo not shown) [Example 122, 1-(3-(4-((3-methyl-4-((1-methyl-1H-benzo[d]imidazol-5-yl)oxy)phenyl)amino)pyrido[3,2-d]pyrimidin-6-yl)-8-azabicyclo[3.2.1]octan-8-yl)prop-2-en-1-one], the half-inhibitory concentration (IC50) is not below 5000 nM in assay [1], 9.3 nM in assay [2], 3880 nM in assay [3] and 13 nM in assay [4].

As to `C=CC(=O)N1CCC(c2ccc3ncnc(Nc4ccc(Oc5ccc6c(c5)ncn6C)c(C)c4)c3n2)C(C)C1` (stereo not drawn) [Example 125, 1-((3RS,4R*)3-methyl-4-(4-((3-methyl-4-((1-methyl-1H-benzo[d]imidazol-5-yl)oxy)phenyl)amino)pyrido[3,2-d]pyrimidin-6-yl)piperidin-1-yl)prop-2-en-1-one], the half-inhibitory concentration (IC50) in assay [1] was not below 5000 nM; in assay [2], 48.2 nM; in assay [3], 7480 nM; in assay [4] it was 40 nM.

On to `C=CC(=O)N1CCCCC(c2ccc3ncnc(Nc4ccc(Oc5ccc6c(c5)ncn6C)c(C)c4)c3n2)C1` (stereo not shown) [Example 126, 1-(3-(4-((3-methyl-4-((1-methyl-1H-benzo[d]imidazol-5-yl)oxy)phenyl)amino)pyrido[3,2-d]pyrimidin-6-yl)azepan-1-yl)prop-2-en-1-one], for which the IC50 stood at 1770 nM in assay [1], 12.3 nM in assay [2], 1260 nM in assay [3] and 12.2 nM in assay [4].

For the compound `C=CC(=O)N1CCN(c2nc3c(Nc4ccc(Oc5ccn6ncnc6c5)c(Cl)c4F)ncnc3cc2OC)CC1` [Example 148, 1-(4-(4-((4-([1,2,4]triazolo[1,5-a]pyridin-7-yloxy)-3-chloro-2-fluorophenyl)amino)-7-methoxypyrido[3,2-d]pyrimidin-6-yl)piperazin-1-yl)prop-2-en-1-one], the IC50 turned out to be 69 nM in assay [1], 0.6 nM in assay [2], 16.1 nM in assay [3] and 4.4 nM in assay [4].

Regarding `C=CC(=O)N1CCN(c2nc3c(Nc4ccc(Oc5ccn6ncnc6c5)c(C)c4F)ncnc3cc2Cl)C[C@@H]1C` [Example 149, (S)-1-(4-(4-((4-([1,2,4]triazolo[1,5-a]pyridin-7-yloxy)-2-fluoro-3-methylphenyl)amino)-7-chloropyrido[3,2-d]pyrimidin-6-yl)-2-methylpiperazin-1-yl)prop-2-en-1-one], the IC50 in assay [1] is not below 5000 nM; in assay [2] it was 323 nM; in assay [3] it was 6700 nM; in assay [4], 192 nM.

For the compound `C=CC(=O)N1CCCN(c2nc3c(Nc4ccc(Oc5ccn6ncnc6c5)c(C)c4F)ncnc3cc2OC)CC1` [Example 150, 1-(4-(4-((4-([1,2,4]triazolo[1,5-a]pyridin-7-yloxy)-2-fluoro-3-methylphenyl)amino)-7-methoxypyrido[3,2-d]pyrimidin-6-yl)-1,4-diazepan-1-yl)prop-2-en-1-one], the IC50 was not below 5000 nM in assay [1], 16.6 nM in assay [2], 1550 nM in assay [3] and 47 nM in assay [4].

Consider `C=CC(=O)N1CCC(Oc2nc3c(Nc4ccc(Oc5ccc6cn(C)nc6c5)c(C)c4F)ncnc3cc2OC)CC1` [Example 151, 1-(4-((4-((2-fluoro-3-methyl-4-((2-methyl-2H-indazol-6-yl)oxy)phenyl)amino)-7-methoxypyrido[3,2-d]pyrimidin-6-yl)oxy)piperidin-1-yl)prop-2-en-1-one], for which the IC50 was determined as 548 nM in assay [1], 41.6 nM in assay [2], 126 nM in assay [3] and 28.1 nM in assay [4].

For the compound `C=CC(=O)N1CCCN(c2nc3c(Nc4ccc(Oc5ccn6ncnc6c5)c(Cl)c4F)ncnc3cc2OC)CC1` [Example 153, 1-(4-(4-((4-([1,2,4]triazolo[1,5-a]pyridin-7-yloxy)-3-chloro-2-fluorophenyl)amino)-7-methoxypyrido[3,2-d]pyrimidin-6-yl)-1,4-diazepan-1-yl)prop-2-en-1-one], the IC50 in assay [1] came out at 1790 nM; in assay [2], 4 nM; in assay [3], 265 nM; in assay [4], 38.3 nM.

For the compound `C=CC(=O)N1CC[C@@H]2CN(c3nc4c(Nc5ccc(Oc6ccn7ncnc7c6)c(C)c5F)ncnc4cc3OC)C[C@@H]21` [Example 154, 1-((3aR,6aR)-5-(4-((4-([1,2,4]triazolo[1,5-a]pyridin-7-yloxy)-2-fluoro-3-methylphenyl)amino)-7-methoxypyrido[3,2-d]pyrimidin-6-yl)hexahydropyrrolo[3,4-d]pyrrol-1(2H)-yl)prop-2-en-1-one], the 50% inhibitory concentration (IC50) in assay [1] was found to be 3070 nM; in assay [2], 18 nM; in assay [3], 447 nM; in assay [4], 67.8 nM.

With `C=CC(=O)N1CCC(c2nc3c(Nc4ccc(Oc5ccn6ncnc6c5)c(C)c4F)ncnc3cc2OC)CC1` [Example 155, 1-(4-(4-((4-([1,2,4]triazolo[1,5-a]pyridin-7-yloxy)-2-fluoro-3-methylphenyl)amino)-7-methoxypyrido[3,2-d]pyrimidin-6-yl)piperidin-1-yl)prop-2-en-1-one], the half-inhibitory concentration (IC50) in assay [1] is not below 5000 nM; in assay [2], 9720 nM; in assay [3], not below 10000 nM; in assay [4], 3950 nM.

Consider `C=CC(=O)N1CCC(Oc2nc3c(Nc4ccc(Oc5ccc6cn(C)nc6c5)c(Cl)c4F)ncnc3cc2OC)CC1` [Example 156, 1-(4-((4-((3-chloro-2-fluoro-4-((2-methyl-2H-indazol-6-yl)oxy)phenyl)amino)-7-methoxypyrido[3,2-d]pyrimidin-6-yl)oxy)piperidin-1-yl)prop-2-en-1-one], for which the half-inhibitory concentration (IC50) in assay [1] worked out at 215 nM; in assay [2], 20.3 nM; in assay [3], 110 nM; in assay [4] it was 19.6 nM.

The record behind these values is patent US12447153B2, “HER2 mutation inhibitors” (Array BioPharma Inc., priority 2021, dated 2025).
